# What was measured:
# [1] = test system: Staphylococcus aureus ATCC 29213; assay: Antibacterial susceptibility testing: IC90 determination (STA); format: cell-based; details: STA ATCC 29213, 90% inhibitory concentration for bacterial growth
# Outline: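 Broth microdilution in Mueller-Hinton broth, two-fold compound dilutions (typically 63–0.49 μM), 5×10^5 CFU/ml inoculum, 1.25% DMSO final. Incubated 16–20 h at 35 °C; growth read fluorometrically after resazurin (ex 540/em 590 nm). IC90 in μg/ml = concentration giving 90% growth inhibition.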
# Human HelaM cells = assay: Cytotoxicity MTT assay (TOX HELAM); format: cell-based; details: 72 hours
# Outline: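 HelaM cells exposed to compound, typically 25 to 0.8 μM, 0.5% DMSO, for 72 hours at 37° C. Viability by MTT reduction, absorbance 540 nm minus 690 nm; CC50 is concentration giving 50% reduction in viability.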
# [2] = test system: Methicillin-sensitive Staphylococcus aureus strain ATCC 29213; assay: In vivo efficacy, peritonitis model of S. aureus infection; details: IV, 20% CD + 2H2T, IP infection, inoculum 8.7 log10, female Swiss albino mice, 3 days post-infection
# Description: The concept of studying the in vivo effect of an antibacterial compound by treating intraperitoneally infected mice was introduced in 1911 for optochin against pneumococci (Morgenroth and Levy, 1911). The popularity of the model comes from the ease of its use with short-duration experiments, reproducible infections and simple end-points.
# Methicillin-sensitive Staphylococcus aureus strain ATCC 29213 was used to infect female Swiss albino mice. A Brain Heart Infusion (BHI) broth bacterial culture was inoculated the day before infection, incubated at 37° C. overnight and diluted in fresh BHI broth to the desired concentration. I.p. injection of ˜5×10^8-5×10^9 colony forming units (CFU) was performed in either of the lateral lower quadrants of the abdomen. After inoculation, mice were kept in their cages under daily observation for development of signs of infection or death. For the treatment of mice, both the p.o. and i.v. routes were used and each mouse was treated individually by gavage or by i.v. injection. Both solutions (p.o. and i.v.) and suspensions (p.o.) were tested in this model. The parameter used for monitoring the course of infection and the effect of treatment was death or survival of the animals over 3 days post-infection. […]
# S. aureus = assay: Antibacterial susceptibility testing: IC90 determination with 10% human serum (STA + 10% HS); format: cell-based, Staphylococcus aureus; details: human serum at a final concentration of 10%
# Outline: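 S. aureus ATCC 29213 was grown in Mueller-Hinton broth with 10% human serum by broth microdilution at 5×10^5 CFU/ml, with 1.25% DMSO and two-fold compound dilutions (typically 63–0.49 μM), for 16-20 h at 35° C. Growth was read by resazurin fluorescence (ex 540/em 590 nm). IC90 is the 90% growth-inhibitory concentration, in μg/ml.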
# [3] = In vivo pharmacokinetic and oral bioavailability; details: male Swiss mice
# Method: The in vivo pharmacokinetics and oral bioavailability of the compound of the examples was/is investigated in male Swiss mice (fed) following single intravenous (i.v.) bolus and oral (p.o.) administration. For the i.v. and p.o. solution formulations, the compound was/is dissolved in a 20% HP-β-CD solution. The pH of the formulations was/is around pH 4. All i.v. formulations were isotonic.
structure (smiles),measurement,setting,value
"O=C1CCc2cc(/C=C/C(=O)N3C[C@@H]4CC(c5ccccc5)=C[C@@H]4C3)cnc2N1 (single isomer, unassigned) [compound 14]",STA (361.159) IC90,[1],0.19 mg/L
same,TOX HELAM (222.125) CC50,Human HelaM cells,>9.683 mg/L
same,% Survival,[2]; QD 2.5 mpk,75%
same,% Survival,[2]; QD 5 mpk,100%
same,STA + 10% HS (361.169) IC90,S. aureus,0.19 mg/L
same,AUC0-inf,[3]; i.v. 2.5 mg/kg,7.464 µg·h/mL
same,Half life (t1/2),[3]; i.v. 2.5 mg/kg,2.7 h
same,Plasma clearance Cl,[3]; i.v. 2.5 mg/kg,0.33 L/h/kg
same,Vdz,[3]; i.v. 2.5 mg/kg,1.3 L/kg
same,C0,"[3]; i.v. 2.5 mg/kg, 20% HP-β-CD solution",2.929 µg/mL
same,Oral bioavailability,[3]; p.o. 10 mg/kg vs i.v. 2.5 mg/kg,72%
same,AUC0-inf,[3]; p.o. 10 mg/kg,21.394 µg·h/mL
same,Cmax,[3]; p.o. 10 mg/kg,2.95 µg/mL
same,Half life (t1/2),[3]; p.o. 10 mg/kg,3.2 h
same,Tmax,[3]; p.o. 10 mg/kg,2.0 h
